Tests used:
Bifidobacterium = assay: Stimulation of growth: enumeration of bifidobacterium in vitro in human faecal homogenate / WC broth; type: cell-based, Bifidobacterium spp; conditions: incubated up to 24 hours
Procedure: (§1) The stimulation of growth of micro-organisms has been studied by enumerating bifidobacterium and lactobacilli in vitro in the presence of various test substances. More specifically, aliquots (1 mL) of human faecal homogenates (10 g per 100 mL diluent) were added to diluted WC broth (diluted 50:50 with 0.05M phosphate buffer) to which were added the test mixtures and a lactobacillus or bifidobacterium strain. For each of the combinations, parallel tubes were prepared with one set being inoculated with Bifidobacterium spp or Lactobacillus spp. All mixtures were then incubated for up to 24 hours and bacterial numbers enumerated.

Lactobacterium = assay: Stimulation of growth: enumeration of lactobacilli in vitro in human faecal homogenate / WC broth; type: cell-based, Lactobacillus spp; conditions: incubated up to 24 hours
Procedure: as §1

Compound | Bacterial numbers (CFU/ml) (Bifidobacterium; 1% test substance/mixture) | Bacterial numbers (CFU/ml) (Lactobacterium; 1% test substance/mixture) | Bacterial numbers (CFU/ml) (Bifidobacterium; 1% test substance) | Bacterial numbers (CFU/ml) (Lactobacterium; 1% test substance)
Lactolin [C3] | 1.6 × 10^7 CFU/ml | 1.5 × 10^6 CFU/ml |  | 
CC[C@H](CC[C@@H](C)[C@H]1CC[C@H]2[C@@H]3CC=C4C[C@@H](O)CC[C@]4(C)[C@H]3CC[C@]12C)C(C)C [C5, β-Sitosterol] |  |  | 3.3 × 10^6 CFU/ml | 4.4 × 10^5 CFU/ml
CC[C@H](CC[C@@H](C)[C@H]1CC[C@H]2[C@@H]3CC[C@H]4C[C@@H](O)CC[C@]4(C)[C@H]3CC[C@]12C)C(C)C [C6, β-Sitostanol] |  |  | 2.4 × 10^6 CFU/ml | 4.4 × 10^5 CFU/ml
CCCCCCCCCCCCCCCCCC(=O)O[C@H]1CC[C@@]2(C)[C@@H](CC[C@@H]3[C@@H]2CC[C@]2(C)[C@@H]([C@H](C)CC[C@@H](CC)C(C)C)CC[C@@H]32)C1 [C8, β-Sitostanolstearate] |  |  | 3.2 × 10^6 CFU/ml | 4.5 × 10^5 CFU/ml
Betaglucan [C4] | 1.2 × 10^7 CFU/ml | 1.1 × 10^6 CFU/ml |  | 
CCCCCCCCCCCCCCCC(=O)O[C@H]1CC[C@@]2(C)C(=CC[C@H]3[C@@H]4CC[C@H]([C@H](C)CC[C@@H](CC)C(C)C)[C@@]4(C)CC[C@@H]32)C1 [C7, β-Sitosterolpalmitate] |  |  | 2.7 × 10^6 CFU/ml | 4.4 × 10^5 CFU/ml
OC[C@H]1O[C@@H](O[C@H]2[C@H](O)[C@@H](O)[C@@H](O[C@]3(CO)O[C@H](CO)[C@@H](O)[C@@H]3O)O[C@@H]2CO)[C@H](O)[C@@H](O)[C@H]1O [C2, Lactosucrose] | 1.1 × 10^7 CFU/ml | 1.1 × 10^6 CFU/ml |  | 

From patent US20080241263A1, “Oral and/or Topical Compositions Comprising Prebiotics and Sterols” (priority 2004, published 2008)
